Among the data in patent US12006321B2, “Substituted pyrazolo[1,5-a]pyrimidines as apelin receptor agonists” (Sanford Burnham Prebys Medical Discovery Institute, priority 2017, dated 2024) are EC50 values, retold here.

The target of the assay is T1, human apelin receptor (APJ, APLNR) (Homo sapiens, UniProt P35414).
T1 construct: host or cells: Chinese hamster ovary (CHO) cells, stably integrated receptor
T1 sequence (P35414 1-380): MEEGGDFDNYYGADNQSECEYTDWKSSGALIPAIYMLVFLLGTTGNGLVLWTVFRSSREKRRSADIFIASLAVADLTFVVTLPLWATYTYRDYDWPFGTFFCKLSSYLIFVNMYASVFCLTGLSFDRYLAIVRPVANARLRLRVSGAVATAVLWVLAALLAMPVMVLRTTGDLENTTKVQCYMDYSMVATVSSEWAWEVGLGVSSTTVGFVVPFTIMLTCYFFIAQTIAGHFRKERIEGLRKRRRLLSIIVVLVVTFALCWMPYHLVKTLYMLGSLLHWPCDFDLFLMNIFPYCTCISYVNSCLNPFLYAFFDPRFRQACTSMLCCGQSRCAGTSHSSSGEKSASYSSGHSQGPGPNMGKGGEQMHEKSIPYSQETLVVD
The experiment in a line: cell-based cAMP assay (TR-FRET) in Chinese hamster ovary cells expressing the apelin receptor. The settings on record: EC50 = 50% of control (apelin-13, 1 nM) response; cAMP in CHO cells, 0.5 h incubation; read-out: Potency Category. In outline:
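CHO cells stably expressing human APJ were forskolin-stimulated, then exposed to compound (0.0-100 μM, ≤1% DMSO) for 0.5 h. Lysate cAMP read by competitive TR-FRET immunoassay; EC50 and efficacy expressed relative to 1 nM apelin-13, four-parameter fit over ≥10 concentrations.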

Molecules are shown by their SMILES.

In the case of `COC(=O)c1cc(N2CCCC2)n2nc(C)c(-c3c(C)cccc3C)c2n1` [Compound 122, methyl 3-(2,6-dimethylphenyl)-2-methyl-7-pyrrolidinyl-8-hydropyrazolo[1,5-a]pyrimidine-5-carboxylate], the EC50 is greater than 500 nM. As to `Cc1cccc(C)c1-c1c(C)nn2c(N3CCCC3)cc(C(=O)O)nc12` [Compound 123, 3-(2,6-dimethylphenyl)-2-methyl-7-pyrrolidinyl-8-hydropyrazolo[1,5-a]pyrimidine-5-carboxylic acid], the EC50 is greater than 500 nM.

In the case of `COC(=O)c1cc(N2CCCCC2)n2nc(C)c(-c3c(C)cccc3C)c2n1` [Compound 124, methyl 3-(2,6-dimethylphenyl)-2-methyl-7-piperidyl-8-hydropyrazolo[1,5-a]pyrimidine-5-carboxylate], the EC50 was greater than 500 nM.

As to `Cc1cccc(C)c1-c1c(C)nn2c(N3CCCCC3)cc(C(=O)O)nc12` [Compound 125, 3-(2,6-dimethylphenyl)-2-methyl-7-piperidyl-8-hydropyrazolo[1,5-a]pyrimidine-5-carboxylic acid], the EC50 is greater than 500 nM.

Turning to `Cc1cccc(C)c1-c1c(C)nn2c(-c3ccncc3)cc(C(=O)O)nc12` [Compound 126, 3-(2,6-dimethylphenyl)-2-methyl-7-(4-pyridyl)-8-hydropyrazolo[1,5-a]pyrimidine-5-carboxylic acid], the EC50 is greater than 500 nM. The same measure for `Cc1cccc(C)c1-c1c(C)nn2c(C3=CCCC3)cc(C(=O)O)nc12` [Compound 127, 3-(2,6-dimethylphenyl)-7-cyclopent-1-enyl-2-methyl-8-hydropyrazolo[1,5-a]pyrimidine-5-carboxylic acid]: greater than 500 nM; for `Cc1cccc(CO)c1-c1c(C)nn2c(C(C)C)cc(C(=O)O)nc12` [Compound 128, 3-[6-(hydroxymethyl)-2-methylphenyl]-2-methyl-7-(methylethyl)-8-hydropyrazolo[1,5-a]pyrimidine-5-carboxylic acid]: less than 100 nM. As for `CCOC(=O)c1cc(C(C)C)n2nc(C)c(-c3c(C)cccc3Br)c2n1` [Compound 129, ethyl 3-(2-bromo-6-methylphenyl)-2-methyl-7-(methylethyl)-8-hydropyrazolo[1,5-a]pyrimidine-5-carboxylate], the EC50 is greater than 500 nM. The same measure for `Cc1cccc(Br)c1-c1c(C)nn2c(C(C)C)cc(C(=O)O)nc12` [Compound 130, 3-(2-bromo-6-methylphenyl)-2-methyl-7-(methylethyl)-8-hydropyrazolo[1,5-a]pyrimidine-5-carboxylic acid]: 200 to 500 nM; for `COCc1cccc(C)c1-c1c(C)nn2c(C(C)C)cc(C(=O)O)nc12` [Compound 131, 3-[6-(methoxymethyl)-2-methylphenyl]-2-methyl-7-(methylethyl)-8-hydropyrazolo[1,5-a]pyrimidine-5-carboxylic acid]: less than 100 nM; for `COC(=O)c1cc(Nc2ccc(F)cc2)n2nc(C)c(-c3c(C)cccc3C)c2n1` [Compound 132, methyl 3-(2,6-dimethylphenyl)-7-[(4-fluorophenyl)amino]-2-methyl-8-hydropyrazolo[1,5-a]pyrimidine-5-carboxylate]: greater than 500 nM. The same measure for `COC(=O)c1cc(Nc2ccc(Cl)cc2)n2nc(C)c(-c3c(C)cccc3C)c2n1` [Compound 133, methyl 3-(2,6-dimethylphenyl)-7-[(4-chlorophenyl)amino]-2-methyl-8-hydropyrazolo[1,5-a]pyrimidine-5-carboxylate]: greater than 500 nM. To `COC(=O)c1cc(Nc2ccc(C)cc2)n2nc(C)c(-c3c(C)cccc3C)c2n1` [Compound 134, methyl 3-(2,6-dimethylphenyl)-2-methyl-7-[(4-methylphenyl)amino]-8-hydropyrazolo[1,5-a]pyrimidine-5-carboxylate] belongs greater than 500 nM; to `COC(=O)c1cc(Nc2ccc(OC)cc2)n2nc(C)c(-c3c(C)cccc3C)c2n1` [Compound 135, methyl 3-(2,6-dimethylphenyl)-7-[(4-methoxyphenyl)amino]-2-methyl-8-hydropyrazolo[1,5-a]pyrimidine-5-carboxylate], greater than 500 nM. Turning to `COC(=O)c1cc(Nc2ccc(C(F)(F)F)cc2)n2nc(C)c(-c3c(C)cccc3C)c2n1` [Compound 136, methyl 3-(2,6-dimethylphenyl)-2-methyl-7-{[4-(trifluoromethyl)phenyl]amino}-8-hydropyrazolo[1,5-a]pyrimidine-5-carboxylate], the EC50 was greater than 500 nM. To `COC(=O)c1cc(Nc2ccc(OC(F)(F)F)cc2)n2nc(C)c(-c3c(C)cccc3C)c2n1` [Compound 137, methyl 3-(2,6-dimethylphenyl)-2-methyl-7-{[4-(trifluoromethoxy)phenyl]amino}-8-hydropyrazolo[1,5-a]pyrimidine-5-carboxylate] belongs greater than 500 nM. Regarding `COC(=O)c1cc(Nc2ccc(C#N)cc2)n2nc(C)c(-c3c(C)cccc3C)c2n1` [Compound 138, methyl 3-(2,6-dimethylphenyl)-7-[(4-cyanophenyl)amino]-2-methyl-8-hydropyrazolo[1,5-a]pyrimidine-5-carboxylate], the EC50 is greater than 500 nM. To `Cc1cccc(C)c1-c1c(C)nn2c(Nc3ccc(F)cc3)cc(C(=O)O)nc12` [Compound 139, 3-(2,6-dimethylphenyl)-7-[(4-fluorophenyl)amino]-2-methyl-8-hydropyrazolo[1,5-a]pyrimidine-5-carboxylic acid] belongs greater than 500 nM; to `Cc1cccc(C)c1-c1c(C)nn2c(Nc3ccc(Cl)cc3)cc(C(=O)O)nc12` [Compound 140, 3-(2,6-dimethylphenyl)-7-[(4-chlorophenyl)amino]-2-methyl-8-hydropyrazolo[1,5-a]pyrimidine-5-carboxylic acid], greater than 500 nM; to `Cc1ccc(Nc2cc(C(=O)O)nc3c(-c4c(C)cccc4C)c(C)nn23)cc1` [Compound 141, 3-(2,6-dimethylphenyl)-2-methyl-7-[(4-methylphenyl)amino]-8-hydropyrazolo[1,5-a]pyrimidine-5-carboxylic acid], greater than 500 nM. For the molecule `COc1ccc(Nc2cc(C(=O)O)nc3c(-c4c(C)cccc4C)c(C)nn23)cc1` [Compound 142, 3-(2,6-dimethylphenyl)-7-[(4-methoxyphenyl)amino]-2-methyl-8-hydropyrazolo[1,5-a]pyrimidine-5-carboxylic acid], the EC50 was greater than 500 nM.

As for `Cc1cccc(C)c1-c1c(C)nn2c(Nc3ccc(C(F)(F)F)cc3)cc(C(=O)O)nc12` [Compound 143, 3-(2,6-dimethylphenyl)-2-methyl-7-{[4-(trifluoromethyl)phenyl]amino}-8-hydropyrazolo[1,5-a]pyrimidine-5-carboxylic acid], the EC50 was greater than 500 nM.

Take `Cc1cccc(C)c1-c1c(C)nn2c(Nc3ccc(OC(F)(F)F)cc3)cc(C(=O)O)nc12` [Compound 144, 3-(2,6-dimethylphenyl)-2-methyl-7-{[4-(trifluoromethoxy)phenyl]amino}-8-hydropyrazolo[1,5-a]pyrimidine-5-carboxylic acid]: the EC50 is greater than 500 nM. To `Cc1cccc(C)c1-c1c(C)nn2c(Nc3ccc(C#N)cc3)cc(C(=O)O)nc12` [Compound 145, 3-(2,6-dimethylphenyl)-7-[(4-cyanophenyl)amino]-2-methyl-8-hydropyrazolo[1,5-a]pyrimidine-5-carboxylic acid] belongs greater than 500 nM. As to `COC(=O)c1cc(N(C)c2ccccc2)n2nc(C)c(-c3c(C)cccc3C)c2n1` [Compound 146, methyl 3-(2,6-dimethylphenyl)-2-methyl-7-(methylphenylamino)-8-hydropyrazolo[1,5-a]pyrimidine-5-carboxylate], the EC50 is greater than 500 nM. To `COC(=O)c1cc(N(C)c2ccc(C)cc2)n2nc(C)c(-c3c(C)cccc3C)c2n1` [Compound 147, methyl 3-(2,6-dimethylphenyl)-2-methyl-7-[methyl(4-methylphenyl)amino]-8-hydropyrazolo[1,5-a]pyrimidine-5-carboxylate] belongs greater than 500 nM. To `COC(=O)c1cc(N(C)c2ccc(F)cc2)n2nc(C)c(-c3c(C)cccc3C)c2n1` [Compound 148] belongs greater than 500 nM; to `Cc1cccc(C)c1-c1c(C)nn2c(N(C)c3ccccc3)cc(C(=O)O)nc12` [Compound 149], greater than 500 nM. To `Cc1ccc(N(C)c2cc(C(=O)O)nc3c(-c4c(C)cccc4C)c(C)nn23)cc1` [Compound 150, 3-(2,6-dimethylphenyl)-2-methyl-7-[methyl(4-methylphenyl)amino]-8-hydropyrazolo[1,5-a]pyrimidine-5-carboxylic acid] belongs greater than 500 nM; to `Cc1cccc(C)c1-c1c(C)nn2c(N(C)c3ccc(F)cc3)cc(C(=O)O)nc12` [Compound 151, 3-(2,6-dimethylphenyl)-7-[(4-fluorophenyl)methylamino]-2-methyl-8-hydropyrazolo[1,5-a]pyrimidine-5-carboxylic acid], greater than 500 nM; to `Cc1cccc(C)c1-c1c(C)nn2c(N3CCNCC3)cc(C(=O)O)nc12` [Compound 152, 3-(2,6-dimethylphenyl)-2-methyl-7-piperazinyl-8-hydropyrazolo[1,5-a]pyrimidine-5-carboxylic acid], greater than 500 nM.

On to `CCCN(C)c1cc(C(=O)O)nc2c(-c3c(C)cccc3C)c(C)nn12` [Compound 153, 3-(2,6-dimethylphenyl)-2-methyl-7-(methylpropylamino)-8-hydropyrazolo[1,5-a]pyrimidine-5-carboxylic acid], for which the EC50 was greater than 500 nM.
